Results on three compounds are retold here after patent US20250352629A1, “ADJUVANT FOR BACILLUS CALMETTE-GUERIN CANCER IMMUNOTHERAPY” (The Royal Institution for the Advancement of …, priority 2024, published 2025).

Several values for one entry are separate records, joined by “and”; a condition that tells them apart may be missing. Equal values may be shown once. Entries after “also recorded” stand apart in the source; their conditions may differ.

Series [1] deals with HSCs (LKS+ cells) and immune cells in BM and bladder. Conditions: mouse, in vivo.
The subject of series [2] is MB49 cells. The conditions noted are these: mouse, in vivo.
Series [3] has as its system MB49 cells. Conditions: mouse, in vivo. This is another data set of the same source.
The conditions of series [4]: mouse, in vivo.
In series [5] the test system is bladder cancer. Conditions: human, in vivo; cited from earlier work.
Series [6] deals with B16-F10 cells. The conditions noted are these: mouse, in vivo.
Series [7] deals with MB49 cells.

On to β-Glucan, for which, in series [1], the “frequency and absolute number of neutrophils in bladder” value was “significantly increased”; the “frequency of lymphocytes / adaptive immune cells (CD4+ and CD8+ T cells) in bladder” value is on record as “remained unchanged”. The “frequency and total cell number of neutrophils in BM” value in series [1] (ip) is on record as “increased”. For the same compound, the tumor growth result in series [2] is given as “developed tumors”. Further, in series [3], the increase in survival was 50% and 40%; the survival was found to be 40%; the “survival after neutrophil depletion” value is reported as 10%; the “tumor growth / tumoral volume (histopathology, MRI, tumoral weight)” value is “suppressing tumoral growth; also recorded: reduced tumor growth; also recorded: significant reduction in tumor volume”. The “enhanced survival compared to PBS-control group” value in series [3] (ip) stood at 45%.

For the compound Bacillus Calmette-Guérin [BCG], in series [1], the “LKS+ population in BM, frequency and absolute number” value was “significant expansion”; the “frequency and absolute number of monocytes in BM” value was “increased”; the “frequency and absolute number of neutrophils in BM” value is recorded as “increased”; the “frequency and absolute number of neutrophils in bladder” value is “increased”. In series [1], the “frequency and absolute numbers of dendritic cells in BM” value is “increased”; the “frequency and absolute numbers of dendritic cells in bladder” value was “increased”; the “frequency and absolute numbers of monocytes in bladder” value is “increased”; the “frequency and total cell numbers of NK cells in bladder” value is listed as “increased”. In series [1], the “frequency and total cell numbers of macrophages in bladder” value is “increased”; the “frequency of lymphocytes / adaptive immune cells (CD4+ and CD8+ T cells) in bladder” value is “increased”; the “proportions of long-term HSCs (LT-HSCs) in BM” value is recorded as “reduction”; the “proportions of multipotent progenitors (MPPs) in BM” value is “increases”. Moreover, in series [1], the “proportions of short-term HSCs (ST-HSCs) in BM” value is “increases”. For the same compound, in series [4], the “BCG dissemination to organs” value was “reached the spleen, draining lymph nodes, and BM”; the “BCG elimination in urine” value was “eliminated in the urine”. Besides, the tumor growth entry in series [2] is “significantly reduced tumor growth”. For the same compound, in series [5], the “efficacy of BCG treatment in bladder cancer” value is on record as 30-50%, the “intolerance due to adverse effects” value is on record as “about 20%”, the patients experiencing relapse entry is given as “up to 40%” and the “patients unresponsive to BCG immunotherapy” value was “up to 50%”. Besides, in series [3], the increase in survival is recorded as 50%; the survival is 50-70% and 50%; the “tumor growth / tumoral volume (histopathology, MRI, tumoral weight)” value was “substantial reduction in tumoral volume; also recorded: reduced tumor growth; also recorded: significant tumor reduction”. For the same compound, the enhanced survival in series [3] (iv) is recorded as 40-50%. The “BM-LKS+ population” value in series [6] is “significant expansion”.

Take `CC(=O)N[C@@H](CS)C(=O)O` [NAC, N-Acetyl Cysteine]: in series [7], the “effect of ROS scavenger on cytotoxic activity of trained neutrophils” value was “abolished the cytotoxic activity”.
